From the supplement of paper PMC7600603

Columns and labels:
[1] = system: DLD1 NRF2-WT; assay: TC50 cytotoxicity; higher = less toxic; settings: 72 h; CellTox Green cytotoxicity
Summary of the method: (§1)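 Isogenic DLD1 colorectal cancer cells differing in NRF2 status, one line edited by CRISPR, were cultured in DMEM with 10% FBS and treated in 384-well plates with library compounds at 5 concentrations spanning a 10,000-fold range. Plates were read after 72 h with CellTox Green on a Pherastar FS reader, and signals were normalised to vehicle wells and 100-μM positive-control wells. Cytotoxicity was summarised as TC50 and as a drug sensitivity score, a normalised area under the curve, both from logistic dose-response fits.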

[2] = system: DLD1 NRF2-GOF; assay: TC50 cytotoxicity; higher = less toxic; settings: 72 h; CellTox Green cytotoxicity
Summary of the method: as §1

[3] = system: DLD1 NRF2-WT; assay: drug sensitivity score (DSS) viability (DSS score); higher = more sensitive; extreme values may be limits of the assay; settings: 72 h; CellTiter-Glo viability
Summary of the method: (§2)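 In 384-well plates, library compounds were applied at 5 concentrations spanning a 10,000-fold range to isogenic DLD1 colorectal cancer cells, NRF2 wild-type or CRISPR gain-of-function, maintained in DMEM with 10% FBS. A Pherastar FS reader recorded CellTiter-Glo signal at 72 h, with normalisation to vehicle wells and 100-μM positive-control wells. Curves were fitted with a four-parameter logistic model. EC50 and drug sensitivity score, a normalised area under the curve, came from those curves.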

[4] = system: DLD1 NRF2-GOF; assay: as above; settings: 72 h; CellTiter-Glo viability
Summary of the method: as §2

[5] = system: DLD1 NRF2-WT; settings: 72 h; CellTiter-Glo viability
Summary of the method: as §2

[6] = system: DLD1 NRF2-GOF; settings: 72 h; CellTiter-Glo viability
Summary of the method: as §2

[7] = system: DLD1 NRF2-WT; assay: drug sensitivity score (DSS) cytotoxicity (DSS score); higher = more toxic; extreme values may be limits of the assay; settings: 72 h; CellTox Green cytotoxicity
Summary of the method: as §1

[8] = system: DLD1 NRF2-GOF; assay: as above; settings: 72 h; CellTox Green cytotoxicity
Summary of the method: as §1

| Compound | EC50 viability [5] [nM] | EC50 viability [6] [nM] | TC50 cytotoxicity [1] [nM] | TC50 cytotoxicity [2] [nM] | drug sensitivity score [3] | drug sensitivity score [4] | drug sensitivity score [7] | drug sensitivity score [8] |
| --- | --- | --- | --- | --- | --- | --- | --- | --- |
| COC(=O)N[C@@H](C)CNc1nccc(-c2cn(C(C)C)nc2-c2cc(Cl)cc(NS(C)(=O)=O)c2F)n1 [Encorafenib] | 412 | 387 | > 1000 | > 1000 | 1.1 | 1.3 | 0 | 0 |
| COc1ccc(-c2ccc3ncc4c(c3c2)n(-c2ccc(N3CCNCC3)c(C(F)(F)F)c2)c(=O)n4C)cn1 [NVP-BGT226] | 26.4 | 35 | 338 | 359 | 17.5 | 16.2 | 4.4 | 4.1 |
| C/C(=C\c1csc(C)n1)[C@@H]1C[C@@H]2O[C@]2(C)CCC[C@H](C)[C@H](O)[C@@H](C)C(=O)C(C)(C)[C@@H](O)CC(=O)N1 [Ixabepilone] | 407 | 317 | 201 | > 1000 | 3.5 | 4.2 | 2.4 | 0.5 |
| CC[C@@H]1CN(C(=O)NCC(F)(F)F)C[C@@H]1c1cnc2cnc3[nH]ccc3n12 [Upadacitinib] | > 10000 | 10.1 | > 10000 | > 10000 | 0 | 10.7 | 0 | 0 |
| C1=N/C2=N/c3ccc(OCCN4CCCC4)c(c3)COC/C=C/COCc3cccc(c3)C(=C1)N2 [Pacritinib] | 511 | 855 | 1980 | 1800 | 15.1 | 12.6 | 8.1 | 8.6 |
| C=CC(=O)Nc1cccc(Nc2nc(Nc3ccc(N4CCN(C(C)=O)CC4)cc3OC)ncc2C(F)(F)F)c1 [Rociletinib] | 2440 | 3690 | 3150 | > 10000 | 5.3 | 3.1 | 1.5 | 0.7 |
| COc1c(OCCCN2CCOCC2)ccc2c1N=C(NC(=O)c1cnc(N)nc1)N1CCN=C21 [Copanlisib] | 66.4 | 199 | > 1000 | > 1000 | 8.1 | 2.9 | 0.8 | 0 |
| Nc1ncnc2c1nc(N)n2[C@@H]1O[C@H](CO)[C@@H](O)[C@H]1O [8-amino-adenosine] | 1070 | 1500 | 4710 | 5200 | 20 | 18.2 | 11.8 | 11.2 |
| C=CC(=O)N1CCC[C@@H](n2nc(-c3ccc(Oc4ccccc4)cc3)c3c(N)ncnc32)C1 [Ibrutinib] | > 1000 | > 1000 | > 1000 | > 1000 | 0.1 | 0 | 0 | 0 |
| O=C(/C=C\n1cnc(-c2cc(C(F)(F)F)cc(C(F)(F)F)c2)n1)NNc1cnccn1 [Selinexor] | 202 | 323 | > 10000 | > 10000 | 16.7 | 15.5 | 1.5 | 2.5 |
| COc1cc(OC)cc(N(CCNC(C)C)c2ccc3ncc(-c4cnn(C)c4)nc3c2)c1 [Erdafitinib] | 42.1 | 133 | > 1000 | > 1000 | 5.9 | 6 | 0 | 0 |
| N#CC(c1ccnc(OCc2ccc(CN3CCOCC3)cc2)n1)c1nc2ccccc2s1 (configuration not stated) [Bentamapimod] | > 10000 | > 10000 | > 10000 | > 10000 | 0 | 0 | 0 | 0 |
| COc1cc2ncnc(Nc3ccc(F)c(Cl)c3)c2cc1OCCCN1CCOCC1 [Gefitinib] | 2460 | 4080 | > 10000 | > 10000 | 3.7 | 1.5 | 0 | 0 |

Further lines, with some results ahead:

| EC50 viability [5] [nM] | EC50 viability [6] [nM] | Compound | TC50 cytotoxicity [1] [nM] | TC50 cytotoxicity [2] [nM] | drug sensitivity score [3] | drug sensitivity score [4] | drug sensitivity score [7] | drug sensitivity score [8] |
| --- | --- | --- | --- | --- | --- | --- | --- | --- |
| > 2500 | > 2500 | Cc1cccc(-c2[nH]c(CNc3ccccc3F)nc2-c2ccc3ncnn3c2)n1 [TEW-7197] | > 2500 | > 2500 | 0 | 1.7 | 0 | 0 |
| > 10000 | > 10000 | O=c1ncn2nc(Sc3ccc(F)cc3F)ccc2c1-c1c(Cl)cccc1Cl [VX-745] | > 10000 | > 10000 | 1.4 | 0.2 | 0 | 0 |
| 169 | 112 | CC[C@H](CC#N)OC(=O)N[C@@H](C)c1cccc(NC(=O)Nc2ccc(-c3cnco3)c(OC)c2)c1 [AVN944] | > 10000 | > 10000 | 15.6 | 15.9 | 0 | 0 |
| 0.9 | > 1000 | Cc1cc(-c2nc(-c3ccc(OC(F)(F)F)cc3)no2)nn1Cc1ccnc(N2CCN(C3CC3)CC2)c1 [BAY 87-2243] | > 1000 | > 1000 | 16.2 | 1.7 | 0 | 0 |
| 169 | 256 | O=C(NC1CCNCC1)c1n[nH]cc1NC(=O)c1c(Cl)cccc1Cl [AT7519] | > 10000 | > 10000 | 20 | 17.1 | 0 | 0 |
| 98.4 | 223 | CC(C)(C)c1cnc(CSc2cnc(NC(=O)C3CCNCC3)s2)o1 [SNS-032] | > 10000 | > 10000 | 23.1 | 17.5 | 0.8 | 0 |
